Measured values reported in patent publication US20160038505A1, “METHODS AND COMPOSITIONS FOR TREATING IMPULSE CONTROL DISORDER, ANXIETY-RELATED DISORDERS, VIOLENCE AND/OR ANGER, OR REGULATING FOOD INTAKE” (priority 2014, published 2016).

Key:
[1] = test system: opioid-dependent participants; test: Time to resumption of opioid substitution treatment and withdrawal scales (COWS, SOWS, OOWS); assay type: in vivo, human
Description: Three cohorts of nine (9) subjects (6 administered noribogaine and 3 administered placebo in each cohort) were evaluated for tolerability, pharmacokinetics, and efficacy. Cohort 1 received a single dose of 60 mg noribogaine or placebo. Cohort 2 received a single dose of 120 mg noribogaine or placebo. Cohort 3 received a single dose of 180 mg noribogaine or placebo.
Patients were evaluated based on the Clinical Opiate Withdrawal Scale (COWS), Subjective Opiate Withdrawal Scale (SOWS), and Objective Opiate Withdrawal Scale (OOWS) scoring systems over the period of time between administration of noribogaine (or placebo) until resumption of OST. These scales are outlined in Guidelines for the Psychosocially Assisted Pharmacological Treatment of Opioid Dependence, World Health Organization, Geneva (2009), Annex 10, which is incorporated herein by reference in its entirety. The scales measure the intensity of withdrawal symptoms, based on clinical, subjective, and objective indicia.

cynomolgus monkey = test: Single dose toxicity in cynomolgus monkeys; assay type: in vivo; conditions: oral gavage
Description: The objective of the study was to determine the toxicity and toxicokinetic profile of noribogaine following oral (gavage) administration to the cynomolgus monkey. Each dose was followed by a 7 day washout period. Dosing was staggered by 45 minutes. On study day 15, one animal was administered 80 mg/kg and the other animal was administered 160 mg/kg. The test article was administered as follows in Table 1:
Parameters monitored on the study included: mortality, clinical signs and body weights. Blood samples were collected for TK evaluation. […] The single dose maximum tolerated dose (MTD) was determined to be greater than 160 mg/kg based on the parameters monitored during the study.

[2] = Plasma toxicokinetics in dogs, 14 day repeat dose study; assay type: in vivo, dog
Description: Noribogaine HCl was administered to groups of 4 male and 4 female dogs by single oral gavage daily for 14 days at doses of 0, 0.5, 1.0 and 5.0 mg/kg/day. An additional group of 4 male and 4 female dogs received either the vehicle control or 5.0 mg/kg/day for 14 days and were held for an additional 28 days after cessation of dosing to assess recovery from any potential drug-induced changes. The study was conducted under GLP guidelines and included comprehensive examinations of clinical signs, body weight, clinical pathology parameters, ophthalmologic examinations, ECG recordings and analyses of plasma for bioanalytical measurement of drug levels at appropriate intervals during the study. At the termination of the dosing phase and at the termination of the recovery phase, all dogs were subjected to a complete post-mortem examination including gross examination of major organs and histologic examination of an extensive list of tissues. Additional sections of brain were obtained from cerebrum, cerebellus, brain stem and spinal cord and examined histologically to evaluate potential effects on brain histopathology. In addition, these sections were examined with immunohistochemical stains for GFAP for evidence of gliosis and Calbindin for a more comprehensive examination of cerebellar Purkinje cells.

[3] = Pharmacokinetics of noribogaine in healthy male volunteers (plasma, urine, LCMSMS)
[4] = test system: opioid-dependent participants; test: QT interval evaluation in opioid-dependent patients; assay type: in vivo, human; conditions: 60, 120, 180 mg, first 24 hours; correlated with serum concentration
Description: Patients' QT intervals were evaluated at regular time points throughout the study.

[5] = dog, plasma, po, female dogs, 5.0 mg/kg, D 14
[6] = 30 mg single oral dose, plasma, mean (SD), n = 6

CC[C@H]1CC2C[C@H]3c4[nH]c5ccc(O)cc5c4CCN(C2)C13 [noribogaine]
withdrawal symptoms (COWS, OOWS, SOWS), first six hours following dosing ([1]; 120 mg): generally experienced fewer withdrawal symptoms than the other patients
average time to resumption of opioids (OST) ([1]; single 120 mg dose): greater than 20 hours
single dose maximum tolerated dose (MTD) (cynomolgus monkey): greater than 160 mg/kg
mortality and clinical signs (cynomolgus monkey; doses up to and including 160 mg/kg): No mortality or treatment related clinical signs
Cmax at 1 day of dosing ([2]; dog, plasma, po, female dogs, 0.5 mg/kg, D 1): 25.3 ng/mL
Cmax at 14 day of dosing ([2]; dog, plasma, po, female dogs, 0.5 mg/kg, D 14): 29.8 ng/mL
Cmax at 1 day of dosing ([2]; dog, plasma, po, female dogs, 1.0 mg/kg, D 1): 68.5 ng/mL
Cmax at 14 day of dosing ([2]; dog, plasma, po, female dogs, 1.0 mg/kg, D 14): 74.1 ng/mL
Cmax at 1 day of dosing ([2]; dog, plasma, po, female dogs, 5.0 mg/kg, D 1): 691 ng/mL
Cmax at 14 day of dosing [2, 5]: 683 ng/mL
Tmax at 14 day of dosing [2, 5]: 0.6 h
AUC0-24 h ([2]; female dogs, 0.5 mg/kg, D 1): 40.4 ng·h/mL
AUC0-last ([2]; female dogs, 0.5 mg/kg, D 1): 31.5 ng·h/mL
AUC0-∞ ([2]; female dogs, 0.5 mg/kg, D 1): 44.9 ng·h/mL
T1/2 ([2]; female dogs, 0.5 mg/kg, D 1): 1.0 h
Tmax ([2]; female dogs, 0.5 mg/kg, D 1): 0.5 h
AUC0-24 h ([2]; female dogs, 0.5 mg/kg, D 14): 55.0 ng·h/mL
AUC0-last ([2]; female dogs, 0.5 mg/kg, D 14): 35.4 ng·h/mL
AUC0-∞ ([2]; female dogs, 0.5 mg/kg, D 14): 45.7 ng·h/mL
T1/2 ([2]; female dogs, 0.5 mg/kg, D 14): 1.1 h
Tmax ([2]; female dogs, 0.5 mg/kg, D 14): 1.0 h
AUC0-24 h ([2]; female dogs, 1.0 mg/kg, D 1): 176.2 ng·h/mL
AUC0-last ([2]; female dogs, 1.0 mg/kg, D 1): 148.9 ng·h/mL
AUC0-∞ ([2]; female dogs, 1.0 mg/kg, D 1): 165.3 ng·h/mL
T1/2 ([2]; female dogs, 1.0 mg/kg, D 1): 1.4 h
Tmax ([2]; female dogs, 1.0 mg/kg, D 1): 0.8 h
AUC0-24 h ([2]; female dogs, 1.0 mg/kg, D 14): 203.7 ng·h/mL
AUC0-last ([2]; female dogs, 1.0 mg/kg, D 14): 169.0 ng·h/mL
AUC0-∞ ([2]; female dogs, 1.0 mg/kg, D 14): 197.0 ng·h/mL
T1/2 ([2]; female dogs, 1.0 mg/kg, D 14): 1.6 h
Tmax ([2]; female dogs, 1.0 mg/kg, D 14): 0.5 h
AUC0-24 h ([2]; female dogs, 5.0 mg/kg, D 1): 3367.9 ng·h/mL
AUC0-last ([2]; female dogs, 5.0 mg/kg, D 1): 3367.9 ng·h/mL
AUC0-∞ ([2]; female dogs, 5.0 mg/kg, D 1): 3425.7 ng·h/mL
T1/2 ([2]; female dogs, 5.0 mg/kg, D 1): 4.3 h
AUC0-24 h ([2]; female dogs, 5.0 mg/kg, D 14): 5951.2 ng·h/mL
AUC0-last ([2]; female dogs, 5.0 mg/kg, D 14): 5951.2 ng·h/mL
AUC0-∞ ([2]; female dogs, 5.0 mg/kg, D 14): 6283.2 ng·h/mL
T1/2 ([2]; female dogs, 5.0 mg/kg, D 14): 5.7 h
AUC0-24 h ([2]; male dogs, 0.5 mg/kg, D 1): 59.7 ng·h/mL
AUC0-last ([2]; male dogs, 0.5 mg/kg, D 1): 46.6 ng·h/mL
AUC0-∞ ([2]; male dogs, 0.5 mg/kg, D 1): 67.8 ng·h/mL
Cmax ([2]; male dogs, 0.5 mg/kg, D 1): 28.8 ng/mL
T1/2 ([2]; male dogs, 0.5 mg/kg, D 1): 1.3 h
Tmax ([2]; male dogs, 0.5 mg/kg, D 1): 0.7 h
AUC0-24 h ([2]; male dogs, 0.5 mg/kg, D 14): 64.5 ng·h/mL
AUC0-last ([2]; male dogs, 0.5 mg/kg, D 14): 53.2 ng·h/mL
AUC0-∞ ([2]; male dogs, 0.5 mg/kg, D 14): 68.2 ng·h/mL
Cmax ([2]; male dogs, 0.5 mg/kg, D 14): 29.4 ng/mL
T1/2 ([2]; male dogs, 0.5 mg/kg, D 14): 1.3 h
Tmax ([2]; male dogs, 0.5 mg/kg, D 14): 0.7 h
AUC0-24 h ([2]; male dogs, 1.0 mg/kg, D 1): 119.8 ng·h/mL
AUC0-last ([2]; male dogs, 1.0 mg/kg, D 1): 102.5 ng·h/mL
AUC0-∞ ([2]; male dogs, 1.0 mg/kg, D 1): 120.8 ng·h/mL
Cmax ([2]; male dogs, 1.0 mg/kg, D 1): 58.6 ng/mL
T1/2 ([2]; male dogs, 1.0 mg/kg, D 1): 1.2 h
Tmax ([2]; male dogs, 1.0 mg/kg, D 1): 0.9 h
AUC0-24 h ([2]; male dogs, 1.0 mg/kg, D 14): 210.4 ng·h/mL
AUC0-last ([2]; male dogs, 1.0 mg/kg, D 14): 172.3 ng·h/mL
AUC0-∞ ([2]; male dogs, 1.0 mg/kg, D 14): 195.7 ng·h/mL
Cmax ([2]; male dogs, 1.0 mg/kg, D 14): 67.6 ng/mL
T1/2 ([2]; male dogs, 1.0 mg/kg, D 14): 1.8 h
Tmax ([2]; male dogs, 1.0 mg/kg, D 14): 0.8 h
AUC0-24 h ([2]; male dogs, 5.0 mg/kg, D 1): 3515.0 ng·h/mL
AUC0-last ([2]; male dogs, 5.0 mg/kg, D 1): 3515.0 ng·h/mL
AUC0-∞ ([2]; male dogs, 5.0 mg/kg, D 1): 3630.5 ng·h/mL
Cmax ([2]; male dogs, 5.0 mg/kg, D 1): 693 ng/mL
T1/2 ([2]; male dogs, 5.0 mg/kg, D 1): 4.7 h
AUC0-24 h ([2]; male dogs, 5.0 mg/kg, D 14): 6403.3 ng·h/mL
AUC0-last ([2]; male dogs, 5.0 mg/kg, D 14): 6403.3 ng·h/mL
AUC0-∞ ([2]; male dogs, 5.0 mg/kg, D 14): 6961.4 ng·h/mL
Cmax ([2]; male dogs, 5.0 mg/kg, D 14): 716 ng/mL
T1/2 ([2]; male dogs, 5.0 mg/kg, D 14): 6.5 h
Tmax ([2]; male dogs, 5.0 mg/kg, D 14): 0.9 h
CL/F ([3]; 3 mg single oral dose, plasma, mean (SD), n = 6): 41.4 (7.0) L/h
CL/F ([3]; 10 mg single oral dose, plasma, mean (SD), n = 6): 42.3 (12.0) L/h
CL/F [3, 6]: 46.9 (16.4) L/h
Tmax [3, 6]: 1.8 (0.6) hr
CL/F ([3]; 60 mg single oral dose, plasma, mean (SD), n = 6): 34.0 (11.4) L/h
dose dependence of Cmax and AUC ([3]; 3-60 mg): increased linearly with dose
mean half-life estimates ([3]; across dose groups 3-60 mg): 28 to 50 h
time of peak concentrations after oral dosing ([3]; across dose groups 3-60 mg): 2 to 3 h
volume of distribution ([3]; across dose groups 3-60 mg): 1417 to 3086 L
QT interval prolongation (ΔQTcl) [4]: dose-dependent increase in QT interval prolongation
